For 13 molecules, IC50 results are on record in patent publication US20260070945A1, “MACROCYCLIC IMMUNOMODULATORS” (Bristol-Myers Squibb Company, priority 2022, published 2026).

In general, IC50 refers to the concentration that gives 50% inhibition.

*1 amine or outer side, *2 acyl side, *3 side chain or, on linkers, in order; H or OH if unused. Where a SMILES comes first, the peptide text is derived from it. Bridges are numbered along the chain shown (N, C = ends). [ ]: non-standard residue; d: D form. The star is where a group is joined. ξ: configuration not given here. X4 = NCC[C@H](NC(=O)CNCCNCCN*)C(=O)NCCCCCCCCCCC(=O)O; Phe(4-CF3) = N[C@@H](Cc1ccc(C(F)(F)F)cc1)C(=O)O; Phe(4-COOH) = N[C@@H](Cc1ccc(C(=O)O)cc1)C(=O)O; Bip = N[C@@H](Cc1ccc(-c2ccccc2)cc1)C(=O)O; Phe(3-Me) = Cc1cccc(C[C@H](N)C(=O)O)c1; Val(3-OH) = CC(C)(O)[C@H](N)C(=O)O; X6 = O=C(Cc1ccc(CN[*:1])cc1)[*:2]; Cha = N[C@@H](CC1CCCCC1)C(=O)O; Cit = NC(=O)NCCC[C@H](N)C(=O)O; Thr(3ξ) = CC(O)[C@H](N)C(=O)O; 12Ado = NCCCCCCCCCCCC(=O)O; Carboxymethyl = O=C(O)C*; NMeA = CN[C@@H](C)C(=O)O; Orn = NCCC[C@H](N)C(=O)O; Aun = NCCCCCCCCCCC(=O)O; Dab = NCC[C@H](N)C(=O)O; Dap = NC[C@H](N)C(=O)O; AEEA = NCCOCCOCC(=O)O

The target in the first assay is T1, PD-1/PD-L1 interaction (PE-labeled human PD-L1-Ig binding to Jurkat cell line over-expressing human PD-1) (Homo sapiens, UniProt Q15116).
T1 construct: expressed in transfected cells; host or cells: Jurkat
T1 sequence (Q15116 25-288): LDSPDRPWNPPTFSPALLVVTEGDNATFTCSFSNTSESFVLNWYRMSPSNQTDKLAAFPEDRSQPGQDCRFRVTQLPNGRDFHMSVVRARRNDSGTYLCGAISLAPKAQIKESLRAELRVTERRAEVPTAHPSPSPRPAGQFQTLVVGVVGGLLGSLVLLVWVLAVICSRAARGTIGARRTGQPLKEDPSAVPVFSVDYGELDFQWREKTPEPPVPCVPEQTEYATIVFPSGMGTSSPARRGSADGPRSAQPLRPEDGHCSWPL
As to the kind of experiment: Jurkat-PD-1 Cell Binding High-Content Screening Assay (CBA). To be noted: Jurkat-hPD-1 cells, PE-labeled PD-L1-Ig 20 nM final; read-out: Jurkat HPD1 PDL1 IC50. The method, boiled down:
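Jurkat cells overexpressing human PD-1 (8×10^3/well, DMEM + 10% FCS) preincubated with compound 2 h at 37 °C, then PE-labelled human PD-L1-Ig (20 nM final) for 1 h. Cells fixed in paraformaldehyde with Hoechst 33342; bound PD-L1 quantified by high-content imaging.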
Turning to `CC(C)C[C@@H]1NC(=O)[C@H](Cc2c[nH]c3ccccc23)NC(=O)[C@H](CC(=O)O)NC(=O)[C@H](Cc2ccc(C(=O)O)cc2)NC(=O)[C@H](Cc2ccc(OCC(=O)O)cc2)NC(=O)CSC[C@@H](C(=O)N[C@@H](CCCCN)C(=O)NCc2ccc(CC(=O)NCCCCCCCCCCC(=O)O)cc2)NC(=O)[C@H](CO)NC(=O)[C@H](C(C)C)NC(=O)[C@H](CC2CCCCC2)NC(=O)[C@H](CCN)NC(=O)[C@@H](CC(C)C)NC(=O)[C@H](C)N(C)C(=O)[C@H](C(C)C)NC(=O)[C@H](Cc2ccc(-c3ccccc3)cc2)NC1=O` [Example 1245] ({CH2CO}-Y(Carboxymethyl)[Phe(4-COOH)]DWL[Bip]V[NMeA][dL][Dab][Cha]VSCK[X6][Aun]-OH; thioether N-14), the IC50 was 18.2 nM.

For the molecule `Cc1cccc(C[C@@H]2NC(=O)[C@H](CC(=O)O)NC(=O)[C@H](Cc3ccc(OCC(=O)O)cc3)NC(=O)[C@H](C(C)O)NC(=O)CSC[C@@H](C(=O)N[C@@H](CCN)C(=O)NCCCCCCCCCCC(=O)O)NC(=O)[C@H](C(C)O)NC(=O)[C@H](C(C)C)NC(=O)[C@H](CC3CCCCC3)NC(=O)[C@H](CCN)NC(=O)[C@@H](CC(C)C)NC(=O)[C@H](C)N(C)C(=O)[C@H](Cc3ccc(OCC(=O)O)cc3)NC(=O)[C@H](Cc3ccc(-c4ccccc4)cc3)NC(=O)[C@H](Cc3ccc(C(=O)O)cc3)NC2=O)c1` (stereo partly drawn) [Example 2353] ({CH2CO}-[Thr(3ξ)]Y(Carboxymethyl)D[Phe(3-Me)][Phe(4-COOH)][Bip]Y(Carboxymethyl)[NMeA][dL][Dab][Cha]V[Thr(3ξ)]C[Dab][Aun]-OH; thioether N-14), the IC50 is 21.5 nM.

In the case of `CC(C)C[C@@H]1NC(=O)[C@H](Cc2c[nH]c3ccccc23)NC(=O)[C@H](CC(=O)O)NC(=O)[C@H](Cc2ccc(C(=O)O)cc2)NC(=O)[C@H](Cc2ccc(OCC(=O)O)cc2)NC(=O)CSC[C@@H](C(=O)N[C@@H](CCCN)C(=O)NCCOCCOCC(=O)NCCCCCCCCCCC(=O)O)NC(=O)[C@H](CCC(=O)O)NC(=O)[C@H](C(C)C)NC(=O)[C@H](CC2CCCCC2)NC(=O)[C@H](CCN)NC(=O)[C@@H](CC(C)C)NC(=O)[C@H](C)N(C)C(=O)[C@H](C(C)C)NC(=O)[C@H](Cc2ccc(-c3ccccc3)cc2)NC1=O` [Example 2126] ({CH2CO}-Y(Carboxymethyl)[Phe(4-COOH)]DWL[Bip]V[NMeA][dL][Dab][Cha]VEC[Orn][AEEA][Aun]-OH; thioether N-14), the IC50 was 8.4 nM.

In the case of `CC(C)C[C@@H]1NC(=O)[C@H](Cc2c[nH]c3ccccc23)NC(=O)[C@H](CC(=O)O)NC(=O)[C@H](Cc2ccc(C(=O)O)cc2)NC(=O)[C@H](Cc2ccc(OCC(=O)O)cc2)NC(=O)CSC[C@@H](C(=O)N[C@@H](CCCN)C(=O)NCCOCCOCC(=O)NCCCCCCCCCCC(=O)O)NC(=O)[C@H](CO)NC(=O)[C@H](C(C)C)NC(=O)[C@H](CC2CCCCC2)NC(=O)[C@H](CCCN)NC(=O)[C@@H](CC(C)C)NC(=O)[C@H](C)N(C)C(=O)[C@H](C(C)C)NC(=O)[C@H](Cc2ccc(-c3ccccc3)cc2)NC1=O` [Example 2138] ({CH2CO}-Y(Carboxymethyl)[Phe(4-COOH)]DWL[Bip]V[NMeA][dL][Orn][Cha]VSC[Orn][AEEA][Aun]-OH; thioether N-14), the 50% inhibitory concentration (IC50) amounted to 14.2 nM.

Turning to `Cc1cccc(C[C@@H]2NC(=O)[C@H](CC(=O)O)NC(=O)[C@H](Cc3ccc(OCC(=O)O)cc3)NC(=O)[C@H](CN)NC(=O)CSC[C@@H](C(=O)N[C@@H](CCN)C(=O)NCCCCCCCCCCC(=O)O)NC(=O)[C@H](CCCN)NC(=O)[C@H](C(C)C)NC(=O)[C@H](CC3CCCCC3)NC(=O)[C@H](CCN)NC(=O)[C@@H](CC(C)C)NC(=O)[C@H](C)N(C)C(=O)[C@H](Cc3ccc(O)cc3)NC(=O)[C@H](Cc3ccc(-c4ccccc4)cc3)NC(=O)[C@H](C(C)C)NC2=O)c1` [Example 1315] ({CH2CO}-[Dap]Y(Carboxymethyl)D[Phe(3-Me)]V[Bip]Y[NMeA][dL][Dab][Cha]V[Orn]C[Dab][Aun]-OH; thioether N-14), the 50% inhibitory concentration (IC50) is 9.9 nM.

Take `CC(C)C[C@@H]1NC(=O)[C@H](Cc2c[nH]c3ccccc23)NC(=O)[C@H](CC(=O)O)NC(=O)[C@H](Cc2ccc(OCC(=O)O)cc2)NC(=O)[C@H](C(C)O)NC(=O)CSC[C@@H](C(=O)NCCOCCOCC(=O)NCCCCCCCCCCC(=O)O)NC(=O)[C@H](CO)NC(=O)[C@H](C(C)(C)O)NC(=O)[C@H](CC2CCCCC2)NC(=O)[C@H](CCC(=O)O)NC(=O)[C@@H](CC(C)C)NC(=O)[C@H](C)N(C)C(=O)[C@H](C(C)C)NC(=O)[C@H](Cc2ccc(-c3ccccc3)cc2)NC1=O` (stereo partly drawn) [Example 2448] ({CH2CO}-[Thr(3ξ)]Y(Carboxymethyl)DWL[Bip]V[NMeA][dL]E[Cha][Val(3-OH)]SC[AEEA][Aun]-OH; thioether N-14): the IC50 came to 128 nM.

Take `CC[C@H](C)[C@@H]1NC(=O)[C@H](Cc2ccc(-c3ccccc3)cc2)NC(=O)[C@H](CC(C)C)NC(=O)[C@H](Cc2c[nH]c3ccccc23)NC(=O)[C@H](CC(=O)O)NC(=O)[C@H](Cc2ccc(C(=O)O)cc2)NC(=O)[C@H](Cc2ccc(OCC(=O)O)cc2)NC(=O)CSC[C@@H](C(=O)N[C@@H](CCCNC(=N)N)C(=O)NCCCCCCCCCCC(=O)O)NC(=O)[C@H](CO)NC(=O)[C@H](C(C)C)NC(=O)[C@H](CC2CCCCC2)NC(=O)[C@H](CCN)NC(=O)[C@@H](CC(C)C)NC(=O)[C@H](C)N(C)C1=O` [Example 1074] ({CH2CO}-Y(Carboxymethyl)[Phe(4-COOH)]DWL[Bip]I[NMeA][dL][Dab][Cha]VSCR[Aun]-OH; thioether N-14): the IC50 worked out at 43.4 nM.

For `Cc1cccc(C[C@@H]2NC(=O)[C@H](CC(=O)O)NC(=O)[C@H](Cc3ccc(OCC(=O)O)cc3)NC(=O)[C@H](CN)NC(=O)CSC[C@@H](C(=O)NCCNCCNCC(=O)N[C@@H](CCN)C(=O)NCCCCCCCCCCC(=O)O)NC(=O)[C@H](CO)NC(=O)[C@H](C(C)C)NC(=O)[C@H](CC(C)C)NC(=O)[C@H](CC(N)=O)NC(=O)[C@@H](CC(C)C)NC(=O)[C@H](C)N(C)C(=O)[C@H](C(C)C)NC(=O)[C@H](Cc3ccc(-c4ccccc4)cc3)NC(=O)[C@H](CC(C)C)NC2=O)c1` [Example 1063] ({CH2CO}-[Dap]Y(Carboxymethyl)D[Phe(3-Me)]L[Bip]V[NMeA][dL]NLVSC-X4; thioether N-14), the IC50 is 27.9 nM.

For the molecule `CC(C)C[C@@H]1NC(=O)[C@H](Cc2c[nH]c3ccccc23)NC(=O)[C@H](CC(=O)O)NC(=O)[C@H](Cc2ccc(C(=O)O)cc2)NC(=O)[C@H](Cc2ccc(OCC(=O)O)cc2)NC(=O)CSC[C@@H](C(=O)N[C@@H](CCCN)C(=O)NCCOCCOCC(=O)NCCCCCCCCCCC(=O)O)NC(=O)[C@H](CC(=O)O)NC(=O)[C@H](C(C)C)NC(=O)[C@H](CC2CCCCC2)NC(=O)[C@H](CCN)NC(=O)[C@@H](CC(C)C)NC(=O)[C@H](C)N(C)C(=O)[C@H](C(C)C)NC(=O)[C@H](Cc2ccc(-c3ccccc3)cc2)NC1=O` [Example 2125] ({CH2CO}-Y(Carboxymethyl)[Phe(4-COOH)]DWL[Bip]V[NMeA][dL][Dab][Cha]VDC[Orn][AEEA][Aun]-OH; thioether N-14), the IC50 amounted to 11.5 nM.

As to `CC(C)C[C@H]1NC(=O)[C@H](C)N(C)C(=O)[C@H](C(C)C)NC(=O)[C@H](Cc2ccc(-c3ccccc3)cc2)NC(=O)[C@H](C(C)C)NC(=O)[C@H](Cc2c[nH]c3ccccc23)NC(=O)[C@H](CC(=O)O)NC(=O)[C@H](Cc2ccc(OCC(=O)O)cc2)NC(=O)[C@H](C(C)O)NC(=O)CSC[C@@H](C(=O)N[C@H](CC(N)=O)C(=O)NCCOCCOCC(=O)NCCCCCCCCCCCC(=O)O)NC(=O)[C@H](CCCN)NC(=O)[C@H](C(C)C)NC(=O)[C@H](CC2CCCCC2)NC(=O)[C@H](CCN)NC1=O` (stereo partly drawn) [Example 2203] ({CH2CO}-[Thr(3ξ)]Y(Carboxymethyl)DWV[Bip]V[NMeA][dL][Dab][Cha]V[Orn]C[dN][AEEA][12Ado]-OH; thioether N-14), the concentration for half-maximal inhibition (IC50) is 9.5 nM.

Consider `Cc1cccc(C[C@@H]2NC(=O)[C@H](CC(=O)O)NC(=O)[C@H](Cc3ccc(OCC(=O)O)cc3)NC(=O)[C@H](CCCNC(=N)N)NC(=O)CSC[C@@H](C(=O)N[C@H](CC(N)=O)C(=O)NCCCCCCCCCCC(=O)O)NC(=O)[C@H](C(C)O)NC(=O)[C@H](C(C)C)NC(=O)[C@H](CC3CCCCC3)NC(=O)[C@H](CCN)NC(=O)[C@@H](CC(C)C)NC(=O)[C@H](C)N(C)C(=O)[C@H](CCCNC(N)=O)NC(=O)[C@H](Cc3ccc(-c4ccccc4)cc3)NC(=O)[C@H](C(C)C)NC2=O)c1` (stereo partly drawn) [Example 2312] ({CH2CO}-RY(Carboxymethyl)D[Phe(3-Me)]V[Bip][Cit][NMeA][dL][Dab][Cha]V[Thr(3ξ)]C[dN][Aun]-OH; thioether N-14), for which the IC50 turned out to be 8.7 nM.

Take `Cc1cccc(C[C@@H]2NC(=O)[C@H](CC(=O)O)NC(=O)[C@H](Cc3ccc(OCC(=O)O)cc3)NC(=O)[C@H](CN)NC(=O)CSC[C@@H](C(=O)NCC(=O)N[C@@H](CCC(=O)O)C(=O)NCCCCCCCCCCC(=O)O)NC(=O)[C@H](CO)NC(=O)[C@H](C(C)C)NC(=O)[C@H](CC(C)C)NC(=O)[C@H](CC(N)=O)NC(=O)[C@@H](CC(C)C)NC(=O)[C@H](C)N(C)C(=O)[C@H](C(C)C)NC(=O)[C@H](Cc3ccc(-c4ccccc4)cc3)NC(=O)[C@H](CC(C)C)NC2=O)c1` [Example 1060] ({CH2CO}-[Dap]Y(Carboxymethyl)D[Phe(3-Me)]L[Bip]V[NMeA][dL]NLVSCGE[Aun]-OH; thioether N-14): the IC50 amounted to 47.9 nM.

Staying with this assay, now noted: PE-labeled PD-L1-Ig 20 nM final, Jurkat-hPD-1 cells; read-out: Jurkat HPD1 PDL1 IC50.
Turning to `CC(=O)NCCCC[C@@H]1NC(=O)[C@H](C(C)(C)O)NC(=O)[C@H](CC2CCCCC2)NC(=O)[C@H](CCN)NC(=O)[C@@H](CC(C)C)NC(=O)[C@H](C)N(C)C(=O)[C@H](CCC(N)=O)NC(=O)[C@H](Cc2ccc(-c3ccccc3)cc2)NC(=O)[C@H](Cc2ccc(C(F)(F)F)cc2)NC(=O)[C@H](Cc2cccc(C)c2)NC(=O)[C@H](CC(=O)O)NC(=O)[C@H](Cc2ccc(OCC(=O)O)cc2)NC(=O)[C@H](Cc2ccc(OCC(=O)O)cc2)NC(=O)CSC[C@@H](C(=O)N[C@@H](CCN)C(=O)NCCOCCOCC(=O)NCCCCCCCCCCC(=O)O)NC1=O` [Example 2593] ({CH2CO}-Y(Carboxymethyl)Y(Carboxymethyl)D[Phe(3-Me)][Phe(4-CF3)][Bip]Q[NMeA][dL][Dab][Cha][Val(3-OH)]K(Ac)C[Dab][AEEA][Aun]-OH; thioether N-14), the IC50 came out at 9 nM.
